Data: paper PMC5900025, “Naphthoquinone Derivatives as Scaffold to Develop New Drugs for Tuberculosis Treatment” (Frontiers in Microbiology, 2018)
Converted amounts (≈) assume the structure as drawn. Where two headings read alike, the source gives them in different places.

Columns and labels:
Format in all cases: cell-based
[1] = tested on: M. tuberculosis pan-susceptible H37Rv (ATCC 27294); assay: microbe, parasite or virus in culture; conditions: REMA, 7 days at 37°C
[2] = tested on: J774A.1 macrophage cell line (ATCC TIB-67); assay: Cytotoxicity assay (resazurin); conditions: Mus musculus, J774.A1
[3] = tested on: three M. tuberculosis strains (H37Rv, INHR, RMPR); assay: microbe, parasite or virus in culture; conditions: Mycobacterium tuberculosis, stated for all three strains together
[4] = Mycobacterium tuberculosis, 168 h, read-out: MIC
[5] = J774A.1 cells, concentration maintaining viability of 50% of the cells
[6] = Mycobacterium tuberculosis, 168 h

Structure (SMILES)	MIC [1, 4] [µM]	IC50 [2] [µM]	MIC [3] [µM]	IC50 [2, 5] [µM]	MIC [1, 6] [µM]	MIC ([1]; read-out: MIC) [µM]
O=C1C(Cl)=C(Cl)C(=O)c2ccccc21 [Compound 1, 2,3-Dichloronaphthalene-1,4-dione]	111 (≈ 25.1 µg/mL)	103	111 (≈ 25.1 µg/mL)			
CC1(C)CCC2=C(O1)C(=O)c1ccccc1C2=O [Compound 2, 2,2-Dimethyl-3,4-dihydro-2H-benzo[g]chromene-5, 10-dione]	103 (≈ 25 µg/mL)		103 to 207 (≈ 25 to 50.1 µg/mL)	285		
CC1(C)CC2=C(O1)C(=O)c1ccccc1C2=O [Compound 3, 2,2-Dimethyl-2,3-dihydronaphtho[2,3-b]furan-4,9-dione]	54.8 (≈ 12.5 µg/mL)		54.8 (≈ 12.5 µg/mL)	> 877		
C=CCOC1=CC(=O)c2ccccc2C1=O [Compound 4, 2-(Allyloxy)naphthalene-1,4-dione]				173	58.4 (≈ 12.5 µg/mL)	
NC1=CC(=O)c2ccccc2C1=O [Compound 5, 2-Aminonaphthalene-1,4-dione]	72.2 (≈ 12.5 µg/mL)	> 1160				
O=C1C=C(Nc2ccccc2)C(=O)c2ccccc21 [Compound 6, 2-(Phenylamino)naphthalene-1,4-dione]				> 803	110 (≈ 27.5 µg/mL)	100.4 (≈ 25 µg/mL)
NNC(=O)c1ccncc1 [INH, isoniazid, reference compound]	0.438 (≈ 0.0601 µg/mL)			3730		
CO[C@H]1/C=C/O[C@@]2(C)Oc3c(C)c(O)c4c(O)c(c(/C=N/N5CCN(C)CC5)c(O)c4c3C2=O)NC(=O)/C(C)=C\C=C\[C@H](C)[C@H](O)[C@@H](C)[C@@H](O)[C@@H](C)[C@H](OC(C)=O)[C@@H]1C [RIF, rifampicin, reference compound]	0.608 (≈ 0.5 µg/mL)			> 2490		
